In this test the target is T1, KpCitS (Klebsiella pneumoniae, UniProt P31602).
T1 construct: gene citS; homodimer; TM7-TM8 loop not modelled
T1 sequence (P31602 1-446): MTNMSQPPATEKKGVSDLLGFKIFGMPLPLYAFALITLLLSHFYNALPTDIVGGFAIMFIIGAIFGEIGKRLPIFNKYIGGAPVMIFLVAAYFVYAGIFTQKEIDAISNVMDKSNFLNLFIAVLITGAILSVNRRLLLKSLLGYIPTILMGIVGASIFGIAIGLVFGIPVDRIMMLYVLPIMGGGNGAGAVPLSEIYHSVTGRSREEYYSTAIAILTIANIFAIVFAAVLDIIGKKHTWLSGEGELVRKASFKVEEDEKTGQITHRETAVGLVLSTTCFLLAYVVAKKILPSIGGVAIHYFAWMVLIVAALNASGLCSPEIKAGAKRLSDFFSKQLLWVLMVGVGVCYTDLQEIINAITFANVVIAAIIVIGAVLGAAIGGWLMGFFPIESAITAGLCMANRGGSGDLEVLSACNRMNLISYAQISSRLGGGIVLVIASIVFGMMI
In words: X-ray crystal structures, […]-4.[…] A. As to conditions: sodium-containing buffer; bound at the transport-domain site in outward-facing and asymmetric forms; one citrate per protomer. It counts as binding.

These results are taken from PMC5451387, “Structural insights into the elevator-like mechanism of the sodium/citrate symporter CitS” (Scientific Reports, 2017).

`O=C(O)CC(O)(CC(=O)O)C(=O)O` [citrate]: the “X-ray crystal structures, 3.5-4.0 A” value is “Each KpCitS protomer binds one molecule of citrate in the outward-facing and asymmetric conformations”.
